Assays:
[1] = system: inherited obese mice (C57BL ob/ob); assay: Blood sugar-lowering effect in glucose tolerance test, inherited obese mice (C57BL ob/ob); format: in vivo, mouse (C57BL ob/ob); settings: 10 mg/kg oral, 5 days; glucose 2 g/kg orally after overnight fasting; blood sugar at 0, 30 and 60 minutes
Protocol: Employing inherited obese mice (C57BL ob/ob), prior to test, the blood sugar level was determined by collecting blood from caudal vein. The mice were grouped so as not to cause any difference in the blood sugar level, and the compounds of Example 16, 17 and 29 were administered orally for 5 days at a dosage of 10 mg/kg. For the glucose tolerance test, 2 g/kg of glucose were administered orally after fasting overnight and the blood sugar levels at 0 minute, 30 minutes and 60 minutes were determined. The blood sugar-lowering rate was calculated from following formula. [formula]

aldose reductase = molecular target: T1, aldose reductase (Rattus norvegicus, UniProt P07943); assay: In-vitro inhibitory effect against aldose reductase extracted from rat lens (method of Hayman and Kinoshita); format: biochemical
T1 construct: aldose reductase extracted from rat lens; from tissue; host or cells: rat lens
Excerpt: Against aldose reductase extracted from rat lens, the in-vitro inhibitory effect of the compound of Example 16 was investigated by the method of Hayman and Kinoshita (Journal of Biological Chemistry, vol. 240, p. 877 (1965)).

[2] = system: inherited obese mice (C57BL ob/ob); assay: Triglyceride-lowering effect in blood, inherited obese mice (C57BL ob/ob); format: in vivo, mouse (C57BL ob/ob); settings: 2 weeks
Protocol: Employing inherited obese mice (C57BL ob/ob), the compound of Example 16 was administered orally for 2 weeks at following dosages, and thereafter the triglyceride level in blood was determined. The triglyceride-lowering rate in blood was calculated from following formula. [formula]

Row | SMILES | Blood sugar-depressing rate [1] [%] | IC50 (aldose reductase) [nM] | In-blood triglyceride depressing rate ([2]; 3 mg/kg oral) [%] | In-blood triglyceride depressing rate ([2]; 10 mg/kg oral) [%]
1 | O=C1NC(=O)C(c2ccc(F)c(C(=O)NCc3ccc(C(F)(F)F)cc3)c2)S1 (stereo not drawn) [Example 29] | 30 |  |  | 
2 | COc1ccc(C2SC(=O)NC2=O)cc1C(=O)NCc1ccc(C(F)(F)F)cc1 (stereo not drawn) [Example 16, N-(4-trifluoromethylbenzyl)-5-(2,4-dioxothiazolidin-5-yl)-2-methoxybenzamid] | 48 | 23 | 51 | 70
3 | COc1ccc(C2SC(=O)NC2=O)cc1C(=O)NCc1cccc(C(F)(F)F)c1 (stereo not drawn) [Example 17] | 42 |  |  | 

From patent US5948803A, “N-substituted dioxothiazolidylbenzamide derivatives and process for producing the same” (Kyorin Pharmaceutical Co., Ltd., priority 1995, dated 1999)
